In ChEMBL document CHEMBL1201862, “PubChem BioAssay data set” (2004):
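These data come from cells grown in 96-well plates and exposed to compound for 48 hours at five concentrations. Abbreviation: GI50, concentration required for 50% inhibition of growth.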 Active and inactive are the calls of the source. No stated cut-off is given here; in the data, active = GI50 up to about 1.1 µM and inactive = higher.

Assays:
Test in all cases: NCI anticancer screen, dose series, 48 h
[1] = test system: BT-549
[2] = test system: CAKI-1
[3] = test system: DU-145
[4] = test system: HOP-92
[5] = test system: M14
[6] = test system: MDA-MB-231
[7] = test system: NCI-H522
[8] = test system: OVCAR-4
[9] = test system: OVCAR-5
[10] = test system: RXF 393
[11] = test system: UACC-257
[12] = test system: A498
[13] = test system: A549
[14] = test system: COLO 205
[15] = test system: EKVX
[16] = test system: HCT-116
[17] = test system: HOP-62
[18] = test system: HT-29
[19] = test system: Hs-578T
[20] = test system: IGROV-1
[21] = test system: KM12
[22] = test system: LOX IMVI
[23] = test system: MDA-MB-435
[24] = test system: MDA-N
[25] = test system: NCI-H226
[26] = test system: NCI/ADR-RES
[27] = test system: OVCAR-3
[28] = test system: OVCAR-8
[29] = test system: SF-268
[30] = test system: SK-MEL-28
[31] = test system: SK-MEL-5
[32] = test system: SK-OV-3
[33] = test system: SNB-19
[34] = test system: U-251
[35] = test system: UO-31
[36] = test system: 786-0
[37] = test system: ACHN
[38] = test system: CCRF-CEM
[39] = test system: HCC 2998
[40] = test system: HCT-15
[41] = test system: HL-60
[42] = test system: K562
[43] = test system: MCF7
[44] = test system: MOLT-4
[45] = test system: Malme-3M
[46] = test system: NCI-H23
[47] = test system: NCI-H460
[48] = test system: RPMI-8226
[49] = test system: SK-MEL-2
[50] = test system: SNB-75
[51] = test system: SR
[52] = test system: SW-620
[53] = test system: T47D
[54] = test system: TK-10
[55] = test system: UACC-62
[56] = test system: PC-3
[57] = test system: SF-295
[58] = test system: SF-539
[59] = test system: SN12C

Measured: GI50

NC(CO)Cc1c[nH]cn1 (stereo unspecified)
inactive: [1] > 100 µM | [2] > 100 µM | [3] > 100 µM | [4] > 10 µM | [5] > 100 µM | [6] > 100 µM | [7] > 100 µM | [8] > 10 µM | [9] > 100 µM | [10] > 10 µM | [11] > 100 µM

CCN(CC)CCNc1n[n+]([O-])c2cc([N+](=O)[O-])ccc2[n+]1[O-]
active: [13] 0.454 µM | [2] 0.205 µM | [14] 0.326 µM | [16] 0.3 µM | [17] 0.434 µM | [18] 0.197 µM | [20] 0.116 µM | [21] 0.504 µM | [22] 0.444 µM | [5] 0.377 µM | [23] 0.847 µM | [24] 0.452 µM | [26] 0.979 µM | [27] 0.865 µM | [8] 1 µM | [28] 0.283 µM | [10] 0.809 µM | [29] 0.568 µM | [31] 0.429 µM | [32] 0.687 µM | [34] 0.603 µM
inactive: [12] 1.9 µM | [1] 1.19 µM | [15] 1.94 µM | [19] 3.25 µM | [25] 1.83 µM | [9] 2.04 µM | [30] 3.41 µM | [33] 1.19 µM | [35] 1.84 µM

O=CNCNCCO
inactive: [36] > 100 µM | [12] > 100 µM | [13] > 100 µM | [37] > 100 µM | [1] > 100 µM | [2] > 100 µM | [38] > 100 µM | [3] > 100 µM | [15] > 100 µM | [39] > 100 µM | [16] > 100 µM | [41] 20.7 µM | [17] > 100 µM | [4] > 100 µM | [18] 55.1 µM | [19] > 100 µM | [20] > 100 µM | [42] > 100 µM | [5] > 100 µM | [43] > 100 µM | [44] > 100 µM | [45] > 100 µM | [25] > 100 µM | [46] > 100 µM | [47] > 100 µM | [26] > 100 µM | [27] > 100 µM | [8] > 100 µM | [9] > 100 µM | [28] > 100 µM | [48] 31.7 µM | [10] > 100 µM | [29] > 100 µM | [30] > 100 µM | [49] > 100 µM | [31] > 100 µM | [32] > 100 µM | [33] > 100 µM | [50] > 100 µM | [51] > 100 µM | [52] 46 µM | [53] > 100 µM | [54] > 100 µM | [34] > 100 µM | [55] 46.9 µM | [35] > 100 µM
> 100 µM: [40]

CN(C)c1ccc(C2CC(=O)CC(c3ccc(N(C)C)cc3)C23C(=O)NC(=S)NC3=O)cc1 (stereo unspecified)
inactive: [36] 54.6 µM | [12] > 100 µM | [13] > 100 µM | [37] > 100 µM | [2] > 100 µM | [38] > 100 µM | [14] > 100 µM | [3] > 100 µM | [15] 55.5 µM | [39] 99.3 µM | [16] > 100 µM | [41] > 100 µM | [17] 18 µM | [4] > 100 µM | [18] > 100 µM | [19] 30.2 µM | [42] > 100 µM | [21] > 100 µM | [22] > 100 µM | [5] > 100 µM | [43] 86.1 µM | [6] 36 µM | [23] > 100 µM | [24] > 100 µM | [44] > 100 µM | [45] > 100 µM | [25] > 100 µM | [46] 91.2 µM | [47] > 100 µM | [26] > 100 µM | [27] > 100 µM | [8] > 100 µM | [9] > 100 µM | [56] > 100 µM | [48] > 100 µM | [10] 45.7 µM | [29] 33.2 µM | [57] 57.9 µM | [58] > 100 µM | [30] > 100 µM | [49] 38.8 µM | [31] > 100 µM | [32] > 100 µM | [59] > 100 µM | [33] 71.3 µM | [50] 14.6 µM | [51] > 100 µM | [52] > 100 µM | [53] > 100 µM | [54] > 100 µM | [34] 30.6 µM | [11] > 100 µM | [55] > 100 µM | [35] > 100 µM
> 100 µM: [40]

COC(=O)/C1=C/C=C\C[C@@]2(C)CC(c3ccoc3)OC(=O)[C@@H]2CC[C@H]1C (stereo partly specified)
inactive: [36] > 25 µM | [12] > 25 µM | [13] > 25 µM | [37] > 25 µM | [1] > 25 µM | [2] > 25 µM | [38] > 25 µM | [14] > 25 µM | [15] > 25 µM | [39] > 25 µM | [16] > 25 µM | [41] 7.23 µM | [17] > 25 µM | [4] > 25 µM | [18] > 25 µM | [19] > 25 µM | [20] > 25 µM | [42] > 25 µM | [21] > 25 µM | [22] > 25 µM | [5] > 25 µM | [43] > 25 µM | [6] > 25 µM | [24] > 25 µM | [44] > 25 µM | [45] > 25 µM | [25] > 25 µM | [46] > 25 µM | [47] > 25 µM | [26] > 25 µM | [27] > 25 µM | [8] > 25 µM | [9] > 25 µM | [28] > 25 µM | [56] > 25 µM | [10] > 25 µM | [57] > 25 µM | [58] > 25 µM | [30] > 25 µM | [49] > 25 µM | [31] > 25 µM | [32] > 25 µM | [59] > 25 µM | [33] > 25 µM | [50] > 25 µM | [51] > 25 µM | [52] > 25 µM | [54] > 25 µM | [34] > 25 µM | [11] > 25 µM | [55] > 25 µM | [35] > 25 µM
> 25 µM: [40]

COCC#C[C@@]1(O)CCCCC1CC(OC)OC (stereo partly specified)
inactive: [36] > 100 µM | [12] 38.4 µM | [13] > 100 µM | [37] > 100 µM | [2] > 100 µM | [38] 38.5 µM | [14] > 100 µM | [3] > 100 µM | [15] > 100 µM | [39] > 100 µM | [16] 81.8 µM | [41] 55.1 µM | [17] > 100 µM | [4] 94.6 µM | [18] > 100 µM | [19] > 100 µM | [20] 48.1 µM | [42] 49.7 µM | [21] > 100 µM | [22] 48 µM | [5] > 100 µM | [43] 60 µM | [6] > 100 µM | [23] 62.7 µM | [24] > 100 µM | [44] 42.7 µM | [45] 64.9 µM | [25] > 100 µM | [46] > 100 µM | [47] > 100 µM | [7] 24.7 µM | [26] > 100 µM | [8] 50.4 µM | [9] > 100 µM | [28] 51.6 µM | [56] > 100 µM | [48] 32.4 µM | [10] > 100 µM | [29] > 100 µM | [57] > 100 µM | [30] > 100 µM | [49] > 100 µM | [31] > 100 µM | [32] > 100 µM | [59] > 100 µM | [33] > 100 µM | [50] > 100 µM | [51] 40.3 µM | [53] > 100 µM | [54] > 100 µM | [34] > 100 µM | [11] > 100 µM | [55] 34.9 µM | [35] > 100 µM
76.2 µM: [40]
